Laboratory results from ChEMBL document CHEMBL1127517 (J Med Chem, 1994).

Experiments:
Rattus norvegicus [1] = assay: Distribution of radio activity in tissues of unfasted male rats was measured at 120 min of time in liver after intravenous administration; assay type: ADME, organism-based; settings: in vivo, 2 h
Rattus norvegicus [2] = assay: Distribution of radio activity in tissues of unfasted male rats was measured at 30 min of time in spleen after intravenous administration; assay type: ADME, organism-based; settings: in vivo, 0.5 h
Rattus norvegicus [3] = assay: Distribution of radio activity in tissues of unfasted male rats was measured at 120 min of time in thyroid after intravenous administration; assay type: ADME, organism-based, Thyroid gland; settings: in vivo, 2 h
Rattus norvegicus [4] = assay: Distribution of radio activity in tissues of unfasted male rats was measured at 60 min of time in skin after intravenous administration; assay type: ADME, organism-based; settings: in vivo, 1 h
Rattus norvegicus [5] = assay: Distribution of radio activity in tissues of unfasted male rats was measured at 2 min of time in blood after intravenous administration; assay type: ADME, organism-based; settings: in vivo
Rattus norvegicus [6] = assay: Distribution of radio activity in tissues of unfasted male rats was measured as regional uptake at 60 min of time in hippocampus after intravenous administration; assay type: ADME, organism-based; settings: in vivo, 1 h
Rattus norvegicus [7] = assay: Distribution of radio activity in tissues of unfasted male rats was measured at 2 min of time in liver after intravenous administration; assay type: ADME, organism-based; settings: in vivo
Rattus norvegicus [8] = assay: Distribution of radio activity in tissues of unfasted male rats was measured at 60 min of time in lung after intravenous administration; assay type: ADME, organism-based; settings: in vivo, 1 h
Rattus norvegicus [9] = assay: Distribution of radio activity in tissues of unfasted male rats was measured as regional uptake at 2 min of time in cerebellum after intravenous administration; assay type: ADME, organism-based; settings: in vivo
Rattus norvegicus [10] = assay: Distribution of radio activity in tissues of unfasted male rats was measured at 30 min of time in thyroid after intravenous administration; assay type: ADME, organism-based, Thyroid gland; settings: in vivo, 0.5 h
Rattus norvegicus [11] = assay: Distribution of radio activity in tissues of unfasted male rats was measured at 30 min of time in kidney after intravenous administration; assay type: ADME, organism-based; settings: in vivo, 0.5 h
Rattus norvegicus [12] = assay: Distribution of radio activity in tissues of unfasted male rats was measured as regional uptake at 2 min of time in striatum after intravenous administration; assay type: ADME, organism-based; settings: in vivo
Rattus norvegicus [13] = assay: Distribution of radio activity in tissues of unfasted male rats was measured as regional uptake at 120 min of time in cortex after intravenous administration; assay type: ADME, organism-based; settings: in vivo, 2 h
Rattus norvegicus [14] = assay: Distribution of radio activity in tissues of unfasted male rats was measured at 30 min of time in blood after intravenous administration; assay type: ADME, organism-based; settings: in vivo, 0.5 h
Rattus norvegicus [15] = assay: Distribution of radio activity in tissues of unfasted male rats was measured as regional uptake at 2 min of time in cortex after intravenous administration; assay type: ADME, organism-based; settings: in vivo
Rattus norvegicus [16] = assay: Distribution of radio activity in tissues of unfasted male rats was measured at 60 min of time in muscle after intravenous administration; assay type: ADME, organism-based, Muscle tissue; settings: in vivo, 1 h
[17] = target: T1, Sodium-dependent dopamine transporter (Rattus norvegicus, UniProt P23977); assay: Inhibitory constant towards reuptake of [125I]-13 from dopamine transporter in rat striatal membranes; assay type: cell membranes, Membrane
T1 sequence (P23977 whole entry): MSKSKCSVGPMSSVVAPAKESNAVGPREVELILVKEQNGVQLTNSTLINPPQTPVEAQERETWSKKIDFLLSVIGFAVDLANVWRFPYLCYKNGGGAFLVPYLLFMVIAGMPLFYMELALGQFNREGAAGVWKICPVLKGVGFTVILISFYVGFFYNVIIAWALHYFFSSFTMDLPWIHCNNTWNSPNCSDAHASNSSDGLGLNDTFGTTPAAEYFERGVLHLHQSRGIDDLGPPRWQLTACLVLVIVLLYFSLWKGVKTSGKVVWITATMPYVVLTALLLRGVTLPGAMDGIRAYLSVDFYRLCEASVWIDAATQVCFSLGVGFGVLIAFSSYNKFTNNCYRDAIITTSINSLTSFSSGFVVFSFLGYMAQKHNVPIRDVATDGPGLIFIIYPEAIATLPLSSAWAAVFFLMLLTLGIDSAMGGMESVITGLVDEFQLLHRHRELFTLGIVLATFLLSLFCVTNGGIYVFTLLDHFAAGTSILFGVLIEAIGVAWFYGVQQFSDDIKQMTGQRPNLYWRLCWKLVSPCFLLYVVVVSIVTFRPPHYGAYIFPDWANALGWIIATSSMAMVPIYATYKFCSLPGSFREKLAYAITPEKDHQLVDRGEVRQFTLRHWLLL

Rattus norvegicus [18] = assay: Distribution of radio activity in tissues of unfasted male rats was measured at 120 min of time in spleen after intravenous administration; assay type: ADME, organism-based; settings: in vivo, 2 h
Rattus norvegicus [19] = assay: Distribution of radio activity in tissues of unfasted male rats was measured at 2 min of time in heart after intravenous administration; assay type: ADME, organism-based; settings: in vivo
Rattus norvegicus [20] = assay: Distribution of radio activity in tissues of unfasted male rats was measured as regional uptake at 60 min of time in cortex after intravenous administration; assay type: ADME, organism-based; settings: in vivo, 1 h
Rattus norvegicus [21] = assay: Distribution of radio activity in tissues of unfasted male rats was measured at 60 min of time in kidney after intravenous administration; assay type: ADME, organism-based; settings: in vivo, 1 h
[22] = target: T1, Sodium-dependent dopamine transporter; assay: Inhibitory constant towards reuptake of [125I]-12 from dopamine transporter in rat striatal membranes; assay type: cell membranes, Membrane
Rattus norvegicus [23] = assay: Distribution of radio activity in tissues of unfasted male rats was measured at 30 min of time in lung after intravenous administration; assay type: ADME, organism-based; settings: in vivo, 0.5 h
Rattus norvegicus [24] = assay: Distribution of radio activity in tissues of unfasted male rats was measured at 60 min of time in blood after intravenous administration; assay type: ADME, organism-based; settings: in vivo, 1 h
Rattus norvegicus [25] = assay: Distribution of radio activity in tissues of unfasted male rats was measured at 120 min of time in heart after intravenous administration; assay type: ADME, organism-based; settings: in vivo, 2 h
Rattus norvegicus [26] = assay: Distribution of radio activity in tissues of unfasted male rats was measured at 2 min of time in kidney after intravenous administration; assay type: ADME, organism-based; settings: in vivo
Rattus norvegicus [27] = assay: Distribution of radio activity in tissues of unfasted male rats was measured at 60 min of time in heart after intravenous administration; assay type: ADME, organism-based; settings: in vivo, 1 h
Rattus norvegicus [28] = assay: Distribution of radio activity in tissues of unfasted male rats was measured at 120 min of time in brain after intravenous administration; assay type: ADME, organism-based; settings: in vivo, 2 h
Rattus norvegicus [29] = assay: Distribution of radio activity in tissues of unfasted male rats was measured at 30 min of time in skin after intravenous administration; assay type: ADME, organism-based; settings: in vivo, 0.5 h
Rattus norvegicus [30] = assay: Distribution of radio activity in tissues of unfasted male rats was measured at 2 min of time in muscle after intravenous administration; assay type: ADME, organism-based, Muscle tissue; settings: in vivo
Rattus norvegicus [31] = assay: Distribution of radio activity in tissues of unfasted male rats was measured as regional uptake at 120 min of time in hippocampus after intravenous administration; assay type: ADME, organism-based; settings: in vivo, 2 h
Rattus norvegicus [32] = assay: Distribution of radio activity in tissues of unfasted male rats was measured at 30 min of time in brain after intravenous administration; assay type: ADME, organism-based; settings: in vivo, 0.5 h
Rattus norvegicus [33] = assay: Distribution of radio activity in tissues of unfasted male rats was measured as regional uptake at 30 min of time in ST/CB after intravenous administration; assay type: ADME, organism-based; settings: in vivo, 0.5 h
Rattus norvegicus [34] = assay: Distribution of radio activity in tissues of unfasted male rats was measured as regional uptake at 30 min of time in hippocampus after intravenous administration; assay type: ADME, organism-based; settings: in vivo, 0.5 h
Rattus norvegicus [35] = assay: Distribution of radio activity in tissues of unfasted male rats was measured as regional uptake at 30 min of time in cerebellum after intravenous administration; assay type: ADME, organism-based; settings: in vivo, 0.5 h
Rattus norvegicus [36] = assay: Distribution of radio activity in tissues of unfasted male rats was measured as regional uptake at 2 min of time in ST/CB after intravenous administration; assay type: ADME, organism-based; settings: in vivo
Rattus norvegicus [37] = assay: Distribution of radio activity in tissues of unfasted male rats was measured as regional uptake at 120 min of time in striatum after intravenous administration; assay type: ADME, organism-based; settings: in vivo, 2 h
Rattus norvegicus [38] = assay: Distribution of radio activity in tissues of unfasted male rats was measured at 120 min of time in muscle after intravenous administration; assay type: ADME, organism-based, Muscle tissue; settings: in vivo, 2 h
Rattus norvegicus [39] = assay: Distribution of radio activity in tissues of unfasted male rats was measured as regional uptake at 2 min of time in hippocampus after intravenous administration; assay type: ADME, organism-based; settings: in vivo
Rattus norvegicus [40] = assay: Distribution of radio activity in tissues of unfasted male rats was measured as regional uptake at 30 min of time in cortex after intravenous administration; assay type: ADME, organism-based; settings: in vivo, 0.5 h
Rattus norvegicus [41] = assay: Distribution of radio activity in tissues of unfasted male rats was measured at 2 min of time in thyroid after intravenous administration; assay type: ADME, organism-based, Thyroid gland; settings: in vivo
Rattus norvegicus [42] = assay: Distribution of radio activity in tissues of unfasted male rats was measured as regional uptake at 30 min of time in striatum after intravenous administration; assay type: ADME, organism-based; settings: in vivo, 0.5 h
Rattus norvegicus [43] = assay: Distribution of radio activity in tissues of unfasted male rats was measured as regional uptake at 60 min of time in ST/CB after intravenous administration; assay type: ADME, organism-based; settings: in vivo, 1 h
Rattus norvegicus [44] = assay: Distribution of radio activity in tissues of unfasted male rats was measured at 2 min of time in brain after intravenous administration; assay type: ADME, organism-based; settings: in vivo
Rattus norvegicus [45] = assay: Distribution of radio activity in tissues of unfasted male rats was measured at 2 min of time in spleen after intravenous administration; assay type: ADME, organism-based; settings: in vivo
Rattus norvegicus [46] = assay: Distribution of radio activity in tissues of unfasted male rats was measured as regional uptake at 60 min of time in cerebellum after intravenous administration; assay type: ADME, organism-based; settings: in vivo, 1 h
Rattus norvegicus [47] = assay: Distribution of radio activity in tissues of unfasted male rats was measured at 60 min of time in thyroid after intravenous administration; assay type: ADME, organism-based, Thyroid gland; settings: in vivo, 1 h

For `COC(=O)C1C(c2ccc(Cl)cc2)CC2CCC1N2C/C=C/I` (configuration not stated), the Injected dose/organ (Rattus norvegicus [1]) was 1.44%, the Injected dose/organ (Rattus norvegicus [2]) was 0.23% and the Injected dose/organ (Rattus norvegicus [3]) was 1.06%. It also gave an Injected dose/organ (Rattus norvegicus [4]) of 23.9%, an Injected dose/organ (Rattus norvegicus [5]) of 2.98% and a Dose/g (Rattus norvegicus [6]) of 0.095%. For the same compound, the Injected dose/organ (Rattus norvegicus [7]) was 11.77%, the Injected dose/organ (Rattus norvegicus [8]) was 0.4% and the Dose/g (Rattus norvegicus [9]) was 0.97%. The Injected dose/organ (Rattus norvegicus [10]) was 0.76%, the Injected dose/organ (Rattus norvegicus [11]) was 0.86% and the Dose/g (Rattus norvegicus [12]) was 1.15%. For the same compound, the Dose/g (Rattus norvegicus [13]) was 0.05%, the Injected dose/organ (Rattus norvegicus [14]) was 7.12% and the Dose/g (Rattus norvegicus [15]) was 1.15%. The Injected dose/organ (Rattus norvegicus [16]) was 12.14%, the Ki [17] was 3.2 nM and the Injected dose/organ (Rattus norvegicus [18]) was 0.09%. For the same compound, the Injected dose/organ (Rattus norvegicus [19]) was 1.05%, the Dose/g (Rattus norvegicus [20]) was 0.08% and the Injected dose/organ (Rattus norvegicus [21]) was 0.58%. For the same compound, the Ki [22] was 0.69 nM, the Injected dose/organ (Rattus norvegicus [23]) was 0.91% and the Injected dose/organ (Rattus norvegicus [24]) was 5.24%. For the same compound, the Injected dose/organ (Rattus norvegicus [25]) was 0.11%, the Injected dose/organ (Rattus norvegicus [26]) was 3.11% and the Injected dose/organ (Rattus norvegicus [27]) was 0.19%. The Injected dose/organ (Rattus norvegicus [28]) was 0.13%, the Injected dose/organ (Rattus norvegicus [29]) was 23.76% and the Injected dose/organ (Rattus norvegicus [30]) was 28.27%. It also gave a Dose/g (Rattus norvegicus [31]) of 0.038%, an Injected dose/organ (Rattus norvegicus [32]) of 0.58% and a Dose/g (Rattus norvegicus [33]) of 6.91%. The Dose/g (Rattus norvegicus [34]) was 0.26%, the Dose/g (Rattus norvegicus [35]) was 0.23% and the Dose/g (Rattus norvegicus [36]) was 1.18%. For the same compound, the Dose/g (Rattus norvegicus [37]) was 0.61%, the Injected dose/organ (Rattus norvegicus [38]) was 9.04% and the Dose/g (Rattus norvegicus [39]) was 0.84%. It also gave a Dose/g (Rattus norvegicus [40]) of 0.22%, an Injected dose/organ (Rattus norvegicus [41]) of 0.06% and a Dose/g (Rattus norvegicus [42]) of 1.67%. The Dose/g (Rattus norvegicus [43]) was 15.9%, the Injected dose/organ (Rattus norvegicus [44]) was 1.62% and the Injected dose/organ (Rattus norvegicus [45]) was 0.41%. The Dose/g (Rattus norvegicus [46]) was 0.077% and the Injected dose/organ (Rattus norvegicus [47]) was 0.97%.
